Where two headings read alike, the source gives them in different places.
What was measured:
M5 muscarinic receptor = biological target: T1, M5 muscarinic receptor (Homo sapiens, UniProt P08912); experiment: inhibition of forskolin-stimulated cAMP, M5 CHO cells (M5Gi); assay type: cell-based; design: host or cells: CHO cells, stably transfected; conditions: for effect on forskolin-stimulated production of cAMP: M5, non-preferential response, in words; for Δlog(τ/KA): Table 8, to carbachol; for Emax: CHO; for RAi: Table 8, relative to carbachol; for Gi over Gq+G15 bias: at M5 receptors
T1 sequence (P08912 1-532): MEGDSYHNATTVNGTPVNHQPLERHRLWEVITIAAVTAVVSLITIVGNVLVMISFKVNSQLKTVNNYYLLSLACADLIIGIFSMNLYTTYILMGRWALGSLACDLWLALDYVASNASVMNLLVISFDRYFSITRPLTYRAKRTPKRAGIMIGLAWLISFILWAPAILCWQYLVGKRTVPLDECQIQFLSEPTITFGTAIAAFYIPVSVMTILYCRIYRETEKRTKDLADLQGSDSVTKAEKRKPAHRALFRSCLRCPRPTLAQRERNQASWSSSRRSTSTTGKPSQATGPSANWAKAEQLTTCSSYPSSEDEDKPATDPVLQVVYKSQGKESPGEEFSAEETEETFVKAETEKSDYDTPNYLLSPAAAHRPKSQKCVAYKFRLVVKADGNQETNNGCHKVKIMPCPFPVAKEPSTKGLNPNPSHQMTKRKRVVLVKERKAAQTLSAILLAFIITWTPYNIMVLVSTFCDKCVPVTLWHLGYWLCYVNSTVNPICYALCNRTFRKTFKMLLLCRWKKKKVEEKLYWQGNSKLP
Description: (§1) Since activation of phospholipase C (PLC) via M2 and M4 receptors is weak, cells were transferred with G15 G-protein to facilitate coupling.
(§2) To determine level of cAMP, cells in suspension were pre-incubated for 1 h with 0.4 μM [^3H]adenine, washed, and incubated for 10 min in the presence of isobutylmethylxanthine and 10 μM forskolin. […] Incubation was ended by addition of 0.2 ml of 2.5 M HCl to the samples. Samples were applied to alumina columns (1.5 g of alumina per column), washed with 2 ml ammonium acetate (pH=7.0) and eluted from columns with 4 ml ammonium acetate and measured by liquid scintillation spectrometry. […] The incubation was stopped by addition of 0.5 ml of chloroform methanol HCl mixture (2:1:0.1). After separation of water and organic phases, 0.6 ml of water phase was applied to Dowex columns (1.5 g of Dowex per column), washed by 20 ml of 60 mM ammonium formate/5 mM sodium borate buffer and eluted from columns with 4 ml of 1M ammonium formate/0.1 formic acid buffer and measured by liquid scintillation spectrometry.
(§3) Measurements of the production of cAMP and inositol phosphates: Levels of second messengers cAMP and inositol phosphates were determined in radiochemical chromatography assays as described previously. To determine level of cAMP, cells in suspension were pre-incubated for 1 h with 0.4 μM [^3H]adenine, washed, and incubated for 10 min in the presence of isobutylmethylxanthine and 10 μM forskolin. […] Incubation was ended by addition of 0.2 ml of 2.5 M HCl to the samples. Samples were applied to alumina columns (1.5 g of alumina per column), washed with 2 ml ammonium acetate (pH=7.0) and eluted from columns with 4 ml ammonium acetate and measured by liquid scintillation spectrometry. […] For this purpose, new CHO cell lines stably expressing promiscuous G15 G-protein and M2 or M4 receptor were generated by transfection with pCMV/hygro vector and hygromycin selection. To determine the rate of formation of inositol phosphates IPX, suspended cells were pre-incubated with 0.1 μM [^3H]myo-inositol for 60 min, washed, and incubated with 10 mM LiCl for 15 min. […] The incubation was stopped by addition of 0.5 ml of chloroform methanol HCl mixture (2:1:0.1). After separation of water and organic phases, 0.6 ml of water phase was applied to Dowex columns (1.5 g of Dowex per column), washed by 20 ml of 60 mM ammonium formate/5 mM sodium borate buffer and eluted from columns with 4 ml of 1M ammonium formate/0.1 formic acid buffer and measured by liquid scintillation spectrometry.
(§4) For bi-phasic response, curves were inhibitory and stimulatory phase were fitted separately. Operational Model of Functional Agonism
(§5) [formula] where y is functional response at concentration of tested compound x, EMAX is maximal response of the system, KA is equilibrium dissociation constant and nH is slope factor. Eq. 5 was fitted to data from functional experiments. Eq. 5 was fitted to data by the two-step procedure described earlier. […] In the second step, Eq. 5 with EMAX fixed to the value determined in the first step was fitted to individual experimental data sets. Relative Intrinsic Activity
(§6) Muscarinic receptors are also able to stimulate non-preferential signalling pathways.

M1 muscarinic receptor = biological target: T2, M1 muscarinic receptor (Homo sapiens, UniProt P11229); experiment: stimulation of cAMP, M1 CHO cells (M1Gs); assay type: cell-based; design: host or cells: CHO cells, stably transfected
T2 sequence (P11229 1-460): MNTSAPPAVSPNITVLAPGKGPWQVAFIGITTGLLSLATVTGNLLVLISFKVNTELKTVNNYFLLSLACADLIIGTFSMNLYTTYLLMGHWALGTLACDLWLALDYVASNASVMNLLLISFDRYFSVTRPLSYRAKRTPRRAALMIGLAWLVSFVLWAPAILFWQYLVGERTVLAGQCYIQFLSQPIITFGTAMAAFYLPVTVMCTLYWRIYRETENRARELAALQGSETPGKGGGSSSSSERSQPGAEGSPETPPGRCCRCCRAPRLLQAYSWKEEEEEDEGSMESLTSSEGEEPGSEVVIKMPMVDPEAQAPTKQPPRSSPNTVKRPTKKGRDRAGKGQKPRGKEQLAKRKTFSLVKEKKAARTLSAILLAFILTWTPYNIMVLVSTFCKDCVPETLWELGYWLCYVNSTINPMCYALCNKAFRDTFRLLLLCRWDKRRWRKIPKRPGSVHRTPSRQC
Description: as §1, §2, §3, §4, §5, §6

[1] = M5Gi (↓cAMP), Table 8, read-out: E′MAX
[2] = M5Gi (↓cAMP), Table 8, read-out: pEC50 (converted)
[3] = M5Gi (↓cAMP), Table 8, read-out: pKA (converted)
[4] = M1Gs (↑cAMP), Table 8, relative to carbachol

Row | Structure (SMILES) | effect on forskolin-stimulated production of cAMP (M5 muscarinic receptor) | E′MAX (M5 muscarinic receptor; M5Gi (↓cAMP), Table 8) | τ (M5 muscarinic receptor; M5Gi (↓cAMP), Table 8) | Δlog(τ/KA) (M5 muscarinic receptor; M5Gi (↓cAMP)) | Emax (M5 muscarinic receptor; [1]) [%] | RAi (M5 muscarinic receptor; M5Gi (↓cAMP)) | EC50 (M5 muscarinic receptor; [2]) [µM] | Kd (M5 muscarinic receptor; [3]) [µM] | Gi over Gq+G15 bias (M5 muscarinic receptor) | RAi (M1 muscarinic receptor; [4]) | EC50 (M5 muscarinic receptor) [µM] | Kd (M5 muscarinic receptor) [µM] | Emax (M5 muscarinic receptor) [%] | EC50 (M1 muscarinic receptor) [µM] | E′MAX (M1 muscarinic receptor) [fold increase] | Kd (M1 muscarinic receptor) [µM] | RAi (M1 muscarinic receptor) | Δlog(τ/KA) (M1 muscarinic receptor) | τ (M1 muscarinic receptor)
1 | C[N+](C)(C)CCOC(N)=O [carbachol, reference compound] | inhibited forskolin-stimulated production of cAMP at nanomolar concentrations | 18 ± 1 % of inhibition | 0.24 ± 0.03 | 0 | – | – | – | – | – | – | – | – | – | – | – | – | – | – | –
2 | C[N+]1(Cc2cccs2)CC=CCC1.[I-] (stereo not shown) [Compound 7A, 1-methyl-1-[(thiophen-2-yl)methyl]-1,2,3,6-tetrahydropyridin-1-ium iodide] | inhibited cAMP production | – | 0.59 ± 0.02 | 1.67 ± 0.18 | 34 ± 2 | 0.026 ± 0.003 | 31.6 | 50.1 | ~30 fold | 0 | – | – | – | – | – | – | – | – | –
3 | C1=CCN(Cc2cccs2)CC1.Cl [Compound 6A, 1-[(thiophen-2-yl)methyl]-1,2,3,6-tetrahydropyridin-1-ium chloride] | inhibited cAMP production | – | 0.31 ± 0.04 | 1.70 ± 0.21 | 22 ± 2 | 0.021 ± 0.002 | 21.9 | 31.6 | about 10 fold | 0 | – | – | – | – | – | – | – | – | –
4 | O=C1CCCN1CC#CCN1CCCC1 [oxotremorine, reference compound] | – | – | 0.31 ± 0.03 | −0.79 ± 0.06 | – | 6.44 ± 0.67 | – | – | – | – | 0.0708 | 0.1 | 22 ± 2 | 11.2 | 1.77 ± 0.08 | 15.8 | 3.91 ± 0.22 | −0.59 ± 0.06 | 0.38 ± 0.04
